Test results: US20230201217A1 (priority 2019, published 2023)

Experiments:
[1] = test system: human peripheral blood lymphocytes (HPBL); experiment: In vitro chromosome aberration test; type: cell-based
Experimental: Based on precipitates observed in the range-finding assay, concentrations used during the definitive chromosome aberration assay were a) 7.5, 15, 25, 50, 100, and 150 μg/mL in the 3-hour treatments with and without metabolic activation, and b) 1.0, 15, 25, 30, 35, 40, 45, 50, 55, 60, and 75 μg/mL in the 22-hour treatment without metabolic activation. These cultures along with the vehicle and one concentration of positive control for each treatment condition were analyzed for aberrations. Structural chromosome aberrations were scored for each concentration from a total of 200 metaphase cells (when possible) or ≥30 aberrant cells. Numerical aberrations were evaluated in 400 metaphase cells per concentration.

CD-1 mice = experiment: 14-day oral gavage GLP toxicity study in CD-1 mice; type: in vivo, mouse
Experimental: All test article-treated animals underwent up-titration of dosage levels prior to reaching the maximum daily dose, which was administered for 14 consecutive days. […] The dose volume was 10 mL/kg for all groups. Groups 1 and 4 each consisted of 25 animals/sex and Groups 2-3 each consisted of 20 animals for each sex. Following 14 days of dose administration, 15 mice/sex/toxicology group were euthanized; the remaining 5, (10 for the control and high dose group) mice/sex/toxicology group were euthanized following a 14-day nondosing (recovery) period. Following the final blood collection (study day 13), all toxicokinetic animals (from a satellite group of 18 animals/sex/dose level) were euthanized.
For toxicology assessment, all animals were observed twice daily for mortality and moribundity. Clinical observations were recorded daily, and detailed physical examinations were conducted weekly. Body weights and food consumption were recorded twice weekly. Body temperature was recorded prior to dosing and following dosing at the time that post-dosing clinical observations were conducted. Functional observational battery (FOB) data were recorded for all animals near the start of the treatment period, near the end of the treatment period, and near the end of the recovery period. Ophthalmic examinations were performed during pretest and near the end of the dosing period. At the primary necropsy 10 animals/sex/group and at the recovery necropsy 5 animals/sex/group, were selected for complete necropsies, clinical pathology assessment (hematology and serum chemistry), organ weight collection, and microscopic examination of a full list of tissues. At each termination interval, 5 animals/sex/group were assigned for neuropathology assessments that involved perfusion fixation, comprehensive sectioning of the brain and collection of selected peripheral nerves, and the employment of special stains used to detect subtle neuronal injury.

rats = experiment: Single-dose oral toxicity; type: in vivo, rat
Experimental: Single doses up to 300-400 mg/kg and 800 mg/kg appeared to be generally well tolerated in monkeys and rats, respectively (one monkey treated with 400 mg/kg died in the 2-week GLP study on Day 1 of dosing). […] In mice, mortality was consistently seen following single doses 150 mg/kg. Preliminary 5-day repeat-dose range-finding studies were conducted in mice, rats and monkeys. The definitive 14-day studies in mouse and monkey yielded generally similar results to those observed in the 5-day studies.

Mu opioid receptor = Mu opioid receptor (Homo sapiens, UniProt P35372); experiment: In vitro radio-ligand assay; type: binding; details: 10 μM
Mu opioid receptor, sequence (P35372 whole entry, species assumed): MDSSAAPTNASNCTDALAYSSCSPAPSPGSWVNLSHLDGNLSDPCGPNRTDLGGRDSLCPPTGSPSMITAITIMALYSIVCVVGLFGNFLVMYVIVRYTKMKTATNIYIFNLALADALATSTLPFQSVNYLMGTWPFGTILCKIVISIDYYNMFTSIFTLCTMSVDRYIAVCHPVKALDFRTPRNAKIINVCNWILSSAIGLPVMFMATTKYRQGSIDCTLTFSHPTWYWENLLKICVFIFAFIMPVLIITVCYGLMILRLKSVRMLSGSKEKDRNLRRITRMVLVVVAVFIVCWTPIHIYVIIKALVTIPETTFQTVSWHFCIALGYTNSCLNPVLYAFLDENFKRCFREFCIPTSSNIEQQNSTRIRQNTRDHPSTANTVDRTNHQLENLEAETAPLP
Experimental: (§1) The binding potential of 18-MC with 64 neurotransmitter-related binding sites was evaluated (TABLE 2).

[2] = test system: adrenergic alpha-1 receptor; experiment: In vitro radio-ligand assay; type: binding; details: 10 μM
Experimental: as §1

sodium site 2 channel = experiment: In vitro radio-ligand assay; type: binding; details: 10 μM
Experimental: as §1

plasma protein = experiment: Plasma protein binding; type: in vitro ADME, Mouse
Text: There is no information on the protein binding of any of the metabolites.

In the case of `COCCC1CC2CN3CCc4c([nH]c5ccccc45)C(C(=O)OC)(C2)C13.Cl` (stereo not shown) [18-MC HCl, 18-Methoxycoronaridine hydrochloride], the structural chromosome aberrations ([1]; with metabolic activation) is reported as “positive”, the structural chromosome aberrations ([1]; without metabolic activation) is reported as “negative” and the mortality (CD-1 mice; 100 mg/kg/day group, Days −1 and 12) is reported as “two male mice in the 100 mg/kg/day group were found dead”. For the same compound, the “HED of well tolerated dose” value (CD-1 mice; female mice, 100 mg/kg/day) was 8 mg/kg/day, the NOAEL (CD-1 mice; females) was 100 mg/kg/day and the “HED of well tolerated dose” value (CD-1 mice; male mice, 50 mg/kg/day) was 4 mg/kg/day. For the same compound, the NOAEL (CD-1 mice; males) was 50 mg/kg/day, the “neurobehavioral findings, Functional Observational Battery” value (CD-1 mice; up to 100 mg/kg/day, except non-adverse decreased body temperature) was “no noted neurobehavioral findings” and the “single dose generally well tolerated” value (rats) was at most 800 mg/kg.

For `COCC[C@H]1CC2CN3CCc4c([nH]c5ccccc45)[C@](C(=O)OC)(C2)[C@H]13` [18-MC, 18-methoxycoronaridine], the binding (Mu opioid receptor) was “binding was seen”, the binding [2] was “binding was seen” and the binding (sodium site 2 channel) was “binding was seen”. The “% Bound Mean ± SD” value (plasma protein; 200 ng/mL) was 97.0 ± 0.208%, the “% Bound Mean ± SD” value (plasma protein; 600 ng/mL) was 97.1 ± 0.058% and the “% Bound Mean ± SD” value (plasma protein; 5,000 ng/mL) was 96.5 ± 0.071%. For the same compound, the “Average % Bound Mean ± SD” value (plasma protein; average of 3 concentrations) was 96.9 ± 0.321%.
